Data from patent US8518956B2, “1-(1-(2-ethoxyethyl)-3-ethyl-7-(4-methylpyridin-2-ylamino)-1H-pyrazolo[4,3-d]pyrimidin-5-yl) piperidine-4-carboxylic acid and salts thereof” (priority 2005, dated 2013).

target: T1, PDE5 enzyme (Homo sapiens, UniProt O76074); experiment: Method 1: Human Platelet PDE5 Enzyme Inhibition Scintillation Proximity Assay; type: biochemical; details: METHOD 1: PDE5 IC50, Table B, WO2004096810 examples
T1 construct: The PDE5 enzyme isolated from human platelets; from tissue; host or cells: human platelets
Excerpt: Method 1: Human Platelet PDE5 Enzyme Inhibition Scintillation Proximity Assay
An in vitro assay can be used to evaluate the inhibition of PDE5 enzyme activity by a test compound.
The PDE5 enzyme for use in the assay can be obtained from human platelets by appropriate modification of the method of Thompson, W J et al.; Biochemistry 18(23), 5228-5237, 1979, as described by Ballard S A et al.; J. Urology 159(6), 2164-2171, 1998. The PDE5 enzyme isolated from human platelets can be used to catalyze the hydrolysis of [^3H]cGMP (Amersham Biosciences) to 5′ nucleotide [^3H]GMP. The [^3H]GMP binds to yttrium silicate SPA beads (Amersham Biosciences) and is detected by scintillation counting. More specifically, the effect of the test compound at different concentrations can be evaluated in the assay by contacting the compound with a fixed amount of PDE5 enzyme in the presence of substrate (cGMP or cAMP in a 3:1 ratio unlabelled to [^3H]-labeled). Scintillation counting can be used as described above to determine relative PDE5 enzyme activity. The inhibition of PDE5 enzyme activity is then calculated relative to total PDE5 enzyme activity of uninhibited controls.
PDE5 IC50 Assay: 96-well microtiter plate format
• Buffer A: 20 mM Tris-HCl, 5 mM MgCl2, pH 7.4 • Buffer B: 2 mg/ml BSA in Buffer A (enzyme buffer) • cGMP substrate: Final concentration of 500 nM in assay The amount of ^3H-labeled substrate added depends upon the specific activity of [^3H]cGMP, and the cGMP substrate is diluted with a 10 mM stock of cold cGMP in Buffer A for a final substrate concentration of 500 nM in the assay. • PDE enzyme: Prepared in Buffer B. The dilution factor is determined by enzyme activity. • SPA beads: 20 mg/ml suspension prepared in dH2O.
Stocks of standard and test compounds are prepared at 5 mM in 100% DMSO. The compound is serially diluted in a dilution plate using a 10-point ½ log dilution format. 2 μl of the compound dilution is added in duplicate to the wells of the assay plate. 2 μl of 100% DMSO are added to designated control wells. 25 μl of Buffer A are added to all wells. 25 μl of Buffer B are added to the negative control wells. 25 μl of enzyme are added to the remaining wells. 50 μl of substrate are added to each well. Plates are sealed and incubated for 60 minutes on a plate shaker at 30 C. 50 plof SPA beads are added to stop the reaction. The plates are again sealed and shaken for 15 minutes to allow the beads to bind the GMP product. The beads are allowed to settle for 30 minutes and then read on a NXT TopCount scintillation counter. Data are analyzed with a curve fitting application for plate-based screening. Percent inhibition in this assay is calculated as follows: Inhibition (%)=[(mean maximum−compound value/(mean maximum−mean minimum)]×100.
The IC50 value is determined from sigmoid dose-response curves of enzyme activity versus compound concentration.

Row | Structure (SMILES) | IC50
1 | CCOCCn1nc(CC)c2nc(N3CC(N)C3)nc(Nc3ccncn3)c21 [WO2004096810 Example 3] | 43.8 nM
2 | CCCOCCn1nc(C)c2nc(N3CCN[C@H](C)C3)nc(Nc3cc(C)ccn3)c21 [WO2004096810 Example 4] | 8.84 nM
3 | CCCOCCn1nc(C)c2nc(N3CCN[C@H](C)C3)nc(Nc3ccc(C)cn3)c21 [WO2004096810 Example 7] | 6.03 nM
4 | COCCn1nc(C(C)C)c2nc(N3CCN[C@H](C)C3)nc(Nc3ccc(C)cn3)c21 [WO2004096810 Example 8] | 6.95 nM
5 | Cc1ccc(Nc2nc(N3CCN[C@H](C)C3)nc3c(C)nn(C(C)C)c23)nc1 [WO2004096810 Example 9] | 508 nM
6 | CCOCCn1nc(C)c2nc(N3CCN[C@H](C)C3)nc(Nc3ccncn3)c21 [WO2004096810 Example 11] | 0.29 nM
7 | CCOCCn1nc(C)c2nc(N3CCN[C@@H](C)C3)nc(Nc3ccncn3)c21 [WO2004096810 Example 12] | 1.74 nM
8 | CCOCCn1nc(C)c2nc(N3CCN[C@H](C(C)C)C3)nc(Nc3ccncn3)c21 [WO2004096810 Example 13] | 19.1 nM
9 | CCOCCn1nc(C)c2nc(N3CCN[C@@H](C(C)C)C3)nc(Nc3ccncn3)c21 [WO2004096810 Example 14] | 42.1 nM
10 | CCOCCn1nc(CC)c2nc(N3CCN[C@H](C)C3)nc(Nc3ccncn3)c21 [WO2004096810 Example 15] | 0.09 nM
11 | CCOCCn1nc(CC)c2nc(N3CCN[C@@H](C)C3)nc(Nc3ccncn3)c21 [WO2004096810 Example 16] | 0.98 nM
12 | CCOCCn1nc(CC)c2nc(N3CCN[C@H](C(C)C)C3)nc(Nc3ccncn3)c21 [WO2004096810 Example 17] | 22.4 nM
13 | CCOCCn1nc(CC)c2nc(N3CCN[C@@H](C(C)C)C3)nc(Nc3ccncn3)c21 [WO2004096810 Example 18] | 25.8 nM
14 | CCOCCn1nc(CC)c2nc(N3CCN[C@H](CC)C3)nc(Nc3ccncn3)c21 [WO2004096810 Example 19] | 0.49 nM
15 | CCOCCn1ncc2nc(N3CCN[C@H](C)C3)nc(Nc3ccncn3)c21 [WO2004096810 Example 21] | 2.04 nM
16 | CCCOCCn1nc(C)c2nc(N3CCN[C@H](C)C3)nc(Nc3ccncn3)c21 [WO2004096810 Example 23] | 0.39 nM
17 | Cc1nn(C(C)C)c2c(Nc3ccncn3)nc(N3CCN[C@H](C)C3)nc12 [WO2004096810 Example 24] | 37.7 nM
18 | CCOCCn1nc(C)c2nc(N3CCN[C@H](C)C3)nc(Nc3cc(C)ncn3)c21 [WO2004096810 Example 26] | 1.83 nM
19 | CCOCCn1nc(CC)c2nc(N3CCN[C@H](C)C3)nc(N(C)c3ccncn3)c21 [WO2004096810 Example 28] | 47.9 nM
20 | CCCc1nn(C)c2c(Nc3ccc(C)cn3)nc(N3CCNCC3)nc12 [WO2004096810 Example 34] | 50.2 nM

Row | Structure (SMILES) | IC50
21 | CCCc1nn(C)c2c(Nc3ccc(C)cn3)nc(N3CCC(O)CC3)nc12 [WO2004096810 Example 35] | 737 nM
22 | CCCc1nn(C)c2c(Nc3ccc(C)cn3)nc(N3CCCCC3)nc12 [WO2004096810 Example 36] | 1450 nM
23 | CCCc1nn(C)c2c(Nc3ccc(C)cn3)nc(NC3CNC3)nc12 [WO2004096810 Example 37] | > 10000 nM
24 | CCCc1nn(C)c2c(Nc3ccc(C)cn3)nc(N(C)C3CNC3)nc12 [WO2004096810 Example 38] | > 10000 nM
25 | CCCc1nn(C)c2c(Nc3cc(C)ccn3)nc(N3CCN[C@@H](C)C3)nc12 [WO2004096810 Example 39] | 456 nM
26 | CCCc1nn(C)c2c(Nc3cc(C)ccn3)nc(N3CCN[C@H](C)C3)nc12 [WO2004096810 Example 40] | 334 nM
27 | CCCc1nn(C)c2c(Nc3cc(C)ccn3)nc(NCc3ccc(OC)cc3)nc12 [WO2004096810 Example 71] | 152 nM
28 | CCCc1nn(C)c2c(Nc3cc(C)ccn3)nc(NCCOC)nc12 [WO2004096810 Example 72] | 177 nM
29 | CCCc1nn(C)c2c(Nc3cc(C)ccn3)nc(N)nc12 [WO2004096810 Example 77] | > 10000 nM
30 | CCCc1nn(C)c2c(Nc3ccncn3)nc(N3CCN(C)CC3)nc12 [WO2004096810 Example 80] | 1940 nM
31 | CCCc1nn(C)c2c(Nc3ccncn3)nc(N3CCN[C@@H](C)C3)nc12 [WO2004096810 Example 81] | 118 nM
32 | CCCc1nn(C)c2c(Nc3cc(OC)ncn3)nc(N3CCNCC3)nc12 [WO2004096810 Example 83] | 134 nM
33 | CCCc1nn(C)c2c(Nc3cc(OC)ncn3)nc(NC)nc12 [WO2004096810 Example 84] | 247 nM
34 | CCCc1nn(C)c2c(Nc3cccnn3)nc(N3CCNCC3)nc12 [WO2004096810 Example 88] | > 100 nM
35 | CCCc1nn(C)c2c(Nc3ncc[nH]3)nc(NC)nc12 [WO2004096810 Example 90] | 1550 nM
36 | CCCc1nn(C)c2c(Nc3ccncn3)nc(N3CCN[C@H](C)C3)nc12 [WO2004096810 Example 91] | 22.6 nM
37 | COCCCn1nc(C)c2nc(N(C)CCO)nc(Nc3cc(C)ccn3)c21 [WO2004096810 Example 92] | 26.5 nM
38 | COCCNc1nc(Nc2cc(C)ccn2)c2c(n1)c(C)nn2CCOC [WO2004096810 Example 93] | 31.1 nM
39 | CCc1nn(CCOC)c2c(Nc3cc(C)ccn3)nc(N3CCC(O)CC3)nc12 [WO2004096810 Example 94] | 43.2 nM
40 | COCCn1nc(C)c2nc(N3CC[C@H](OC)C3)nc(Nc3cc(C)ccn3)c21 [WO2004096810 Example 95] | 76 nM

Row | Structure (SMILES) | IC50
41 | COCCCn1nc(C)c2nc(NCCO)nc(Nc3cc(C)ccn3)c21 [WO2004096810 Example 96] | 87.9 nM
42 | CCc1nn(CCOC)c2c(Nc3cc(C)ccn3)nc(NC[C@@H]3CCCN3)nc12 [WO2004096810 Example 98] | 231 nM
43 | CNc1nc(Nc2cc(C)ccn2)c2c(n1)c(C)nn2CCCOC [WO2004096810 Example 99] | 239 nM
44 | COCCCn1nc(C)c2nc(N3CC[C@@H](O)C3)nc(Nc3cc(C)ccn3)c21 [WO2004096810 Example 100] | 67.2 nM
45 | CCc1nn(CCOC)c2c(Nc3ccc(C)cn3)nc(NCCCO)nc12 [WO2004096810 Example 103] | 76.6 nM
46 | CCc1nn(CCOC)c2c(Nc3ccc(C)cn3)nc(N3CCOCC3)nc12 [WO2004096810 Example 108] | 778 nM
47 | CCc1nn(CCOC)c2c(Nc3ccccn3)nc(N(C)CCO)nc12 [WO2004096810 Example 109] | 27.3 nM
48 | CCc1nn(CCOC)c2c(Nc3ccc(F)cn3)nc(NCCOC)nc12 [WO2004096810 Example 110] | 513 nM
49 | CCCc1nn(C)c2c(Nc3ccc(C)cn3)nc(N3CCN(C)CC3)nc12 [WO2004096810 Example 113] | 1250 nM
50 | COCCCn1nc(C)c2nc(N[C@@H](C)CO)nc(Nc3cc(C)cc(C)n3)c21 [WO2004096810 Example 114] | 60.6 nM
51 | CCc1nn(CCOC)c2c(Nc3cc(C)n[nH]3)nc(NCCn3cccn3)nc12 [WO2004096810 Example 115] | 220 nM
52 | COCCCn1nc(C)c2nc(N3CCNCC3)nc(Nc3cc(C)n[nH]3)c21 [WO2004096810 Example 116] | 1760 nM
53 | CCCc1nn(C)c2c(Nc3ccc(CC)cn3)nc(N3CCNCC3)nc12 [WO2004096810 Example 123] | 248 nM
54 | CCCc1nn(C)c2c(NC3CCCCC3)nc(N3CCNCC3)nc12 [WO2004096810 Example 124] | 78.2 nM
55 | CCCc1nn(C)c2c(Nc3cc(C)cc(C)n3)nc(N3CCNCC3)nc12 [WO2004096810 Example 125] | 182 nM
56 | CCCc1nn(C)c2c(N[C@H]3CC[C@H](O)CC3)nc(N3CCNCC3)nc12 [WO2004096810 Example 126] | 2230 nM
57 | CCCc1nn(C)c2c(NC3CCC(OC)CC3)nc(N3CCNCC3)nc12 (stereo not drawn) [WO2004096810 Example 127] | 7580 nM
58 | CCCc1nn(C)c2c(Nc3cccc(C(=O)NC)n3)nc(N3CCNCC3)nc12 [WO2004096810 Example 128] | 1390 nM
59 | CCCc1nn(C)c2c(NC3CCCC3)nc(N3CCNCC3)nc12 [WO2004096810 Example 129] | 139 nM
60 | CCCc1nn(C)c2c(N(C)C3CCN(C)CC3)nc(NC)nc12 [WO2004096810 Example 130] | > 10000 nM
